The results in this text go back to patent US11957683B2, “Bicyclic compounds” (Aligos Therapeutics, Inc., priority 2021, dated 2024).

pEC50: −log10 of the molar value. Read-outs that look alike come from different tables or passages of the source.

In one data set the test system is HBV. As to the kind of experiment: HBV-DNA antiviral assay using HepG2.117 cells. It is filed as cell-based, HBV genotype D. As to conditions: HBV DNA inhibition, intracellular HBV DNA by qPCR, HepG2.117 cells, 3 days incubation, read-out: EC50. The protocol:
(§1) The following assay procedure describes the HBV antiviral assay, using HepG2.117 cells, which carry a stably integrated genotype D HBV genome under the control of a Tet-off promoter, and intracellular HBV DNA quantification as endpoint. Cell viability is assessed in parallel by measuring the intracellular ATP content using CellTiter-Glo 2.0 (Promega).
On day 0, HepG2.117 cells (which are maintained in routine cell culture with doxycycline present in the medium at a final concentration of 1 μg/mL) are seeded in 96-well plates (white with clear bottom) at a density of 2.0×10^4 cells/well (0.1 mL/well) in medium without doxycycline to induce pgRNA transcription and subsequent formation of HBV particles. The cells are incubated at 37° C. and 5% CO2.
(§2) On day 1, medium is removed from each well, the test articles are diluted in culture medium without doxcycyline and 100 μL was added to cell culture wells (9 concentrations, 4-fold dilution). For each plate, 6 untreated (merely DMSO) wells are included. The final concentration of DMSO in the culture medium is 2%. Each plate is prepared in duplicate (one for HBV DNA extraction, one for CellTiter-Glo 2.0 measurement). The cells are incubated at 37° C. and 5% CO2 for 3 days.
(§3) On day 4, cell viability is assessed using CellTiter-Glo 2.0 and cell lysates are prepared for HBV DNA extraction and subsequent quantification by qPCR.
Medium is removed from each well and 100 μL of 0.33% NP-40 in H2O was added to each well. Plates are sealed, incubated at 4° C. for 5 mins, vortexed extensively and centrifuged briefly. Next, 35 μL of lysate is added to 65 μL QuickExtract DNA Extraction Solution (Epicentre) in a PCR plate for each well. PCR plate is incubated at 65° C. for 6 mins, 98° C. for 2 mins and finally cooled to 4° C. HBV DNA is then quantified by qPCR with HBV-specific primers and probes as specified in Table 2 using the Bio-Rad SSOAdvanced Universal Probes Supermix on a CFX96 machine (Bio-Rad). The PCR cycle program consisted of 95° C. for 3 mins, followed by 40 cycles at 95° C. for 10 sec and 60° C. for 30 sec.
A DNA standard is prepared by dilution of an IDT gBlock corresponding to the amplicon with concentrations ranging from 10^2 to 10^8 copies/input (i.e., per 4 μL) and used to generate a standard curve by plotting Cq values vs. HBV DNA standard concentration. The quantity of HBV DNA in each sample is determined by interpolating from the standard curve.
(§4) Cell viability is calculated as follows: % Cell viability=(luminescence value of test sample)/(average luminescence value of 2% DMSO control)×100%. HBV DNA inhibition was calculated as follows: 100−(HBV DNA copy number of test sample)/(average HBV DNA copy number of 2% DMSO control)×100%. No normalization to entecavir is required due to the excellent dynamic window of this assay. The CC50, EC50 and EC90 values were determined by dose-response curves fitted using non-linear regression.
For orientation: Quantitative PCR measures a nucleic acid by following its amplification.

A further data set relates to HepG2.117 cells. As to the kind of experiment: Cell viability by CellTiter-Glo 2.0 (intracellular ATP) in HepG2.117 cells. Type of data set: cell-based. As to conditions: CellTiter-Glo 2.0, HepG2.117 cells, 3 days incubation. How it is done: as §1, §2, §3
(§5) Using the other plates, the cell viability is quantified by CellTiter-Glo 2.0 according to the manufacturer's manual. In brief, 100 μL of reagent solution is added to the culture plates and shaken for 2′. The plates are incubated at rt for 10 min and luminescence signal is subsequently measured on a VarioSkan Lux (ThermoFisher) plate reader.
as §4

Assay in data set [1]: as above
It is filed as cell-based. As to conditions: human, CellTiter-Glo 2.0, HepG2.117 cells, 3 days incubation. How it is done:
as §1, §2, §3, §5, §4
On the technique in general: ATP-based viability assays read luminescence as a measure of living cells.

In general, pEC50 refers to the negative decadic logarithm of the EC50, by convention in mol/L. Usually CC50 stands for the concentration at which the toxic effect on the cells reaches its halfway point. The low end stands for greater toxicity to the cells, the high end for lower toxicity to the cells. For `C=C[C@H](C)Nc1nc2c(c(=O)n1-c1ccc(C(=O)NC)cc1Cl)C[C@@H](C)N(C(=O)c1ccc(Br)c(C(F)(F)F)c1)C2` (atropisomer, axis not shown) [Compound 45, 4-[(6R)-7-[4-bromo-3-(trifluoromethyl)benzoyl]-6-methyl-2-[[(1S)-1-methylallyl]amino]-4-oxo-6,8-dihydro-5H-pyrido[3,4-d]pyrimidin-3-yl]-3-chloro-N-methyl-benzamide], in the data set with HBV, the pEC50 was above 7.30. The compound also yielded a cytotoxic concentration (CC50) in the data set with HepG2.117 cells of 30.1 µM.
Take `C=CC(C)Nc1nc2c(c(=O)n1-c1ccc(C(=O)NC)cc1)C[C@@H](C)N(C(=O)c1ccc(Br)c(C(F)(F)F)c1)C2` (single isomer, unassigned) [Compound 2b]: the pEC50 in the data set on HBV was above 7.30. This compound gave a CC50 in the data set on HepG2.117 cells above 0.5 µM.
`C=CC(C)Nc1nc2c(c(=O)n1-c1ccc(-c3[nH]nnc3C)cc1)C[C@@H](C)N(C(=O)c1ccc(Br)c(C(F)(F)F)c1)C2` (single isomer, unassigned) [Compound 3b]: in the data set on HBV, the pEC50 was above 7.30. In the data set with HepG2.117 cells, this compound displayed a CC50 above 0.5 µM.
For `C=C[C@H](C)Nc1nc2c(c(=O)n1-c1cc3ncn(C)c3cc1F)C[C@@H](C)N(C(=O)c1ccc(Br)c(C(F)(F)F)c1)C2` [Compound 32b, (R)-7-(4-bromo-3-(trifluoromethyl)benzoyl)-2-(((S)-but-3-en-2-yl)amino)-3-(6-fluoro-1-methyl-1H-benzo[d]imidazol-5-yl)-6-methyl-5,6,7,8-tetrahydropyrido[3,4-d]pyrimidin-4(3H)-one], in the data set on HBV, the pEC50 is above 7.30. In the data set with HepG2.117 cells, this compound displayed a CC50 of 21.9 µM.
With `C=C[C@H](C)Nc1nc2c(c(=O)n1-c1ccc(-c3cnn(C)c3)cn1)C[C@@H](C)N(C(=O)c1ccc(Br)c(C(F)(F)F)c1)C2` [Compound 37, (6R)-7-[4-bromo-3-(trifluoromethyl)benzoyl]-6-methyl-2-[[(1S)-1-methylallyl]amino]-3-[5-(1-methylpyrazol-4-yl)-2-pyridyl]-6,8-dihydro-5H-pyrido[3,4-d]pyrimidin-4-one], in the data set on HBV (Hepatitis B virus, 72 h), the pEC50 is above 7.30. This compound showed a CC50 at 3 days in data set [1] above 50 µM.
In the case of `C=C[C@H](C)Nc1nc2c(c(=O)n1-c1ccc3c(c1)ncn3C1CC1)C[C@@H](C)N(C(=O)c1ccc(Br)c(C(F)(F)F)c1)C2` [Compound 38, (6R)-7-[4-bromo-3-(trifluoromethyl)benzoyl]-3-(1-cyclopropylbenzimidazol-5-yl)-6-methyl-2-[[(1S)-1-methylallyl]amino]-6,8-dihydro-5H-pyrido[3,4-d]pyrimidin-4-one], the pEC50 in the data set on HBV (Hepatitis B virus, 72 h) was above 7.30. In data set [1], this compound had a CC50 at 3 days of 24.3 µM.
Turning to `C=C[C@H](C)Nc1nc2c(c(=O)n1-c1ccc(OC[C@@H](C)O)cn1)C[C@@H](C)N(C(=O)c1ccc(Br)c(C(F)(F)F)c1)C2` [Compound 39, (6R)-7-[4-bromo-3-(trifluoromethyl)benzoyl]-3-[5-[(2R)-2-hydroxypropoxy]-2-pyridyl]-6-methyl-2-[[(1S)-1-methylallyl]amino]-6,8-dihydro-5H-pyrido[3,4-d]pyrimidin-4-one], the pEC50 with HBV (Hepatitis B virus, 72 h) was above 7.30. Besides, the CC50 at 3 days in data set [1] was determined as 28.1 µM.
Turning to `C=C[C@H](C)Nc1nc2c(c(=O)n1-c1ccc3c(ncn3C)n1)C[C@@H](C)N(C(=O)c1ccc(Br)c(C(F)(F)F)c1)C2` [Compound 40, (6R)-7-[4-bromo-3-(trifluoromethyl)benzoyl]-6-methyl-2-[[(1S)-1-methylallyl]amino]-3-(1-methylimidazo[4,5-b]pyridin-5-yl)-6,8-dihydro-5H-pyrido[3,4-d]pyrimidin-4-one], in the data set on HBV (Hepatitis B virus, 72 h), the pEC50 was above 7.30. This compound also came in with a CC50 at 3 days in data set [1] above 50 µM.
Turning to `C=C[C@H](C)Nc1nc2c(c(=O)n1-c1ccc(C(=O)NC)nc1)C[C@@H](C)N(C(=O)c1ccc(Br)c(C(F)(F)F)c1)C2` [Compound 41, 5-[(6R)-7-[4-bromo-3-(trifluoromethyl)benzoyl]-6-methyl-2-[[(1S)-1-methylallyl]amino]-4-oxo-6,8-dihydro-5H-pyrido[3,4-d]pyrimidin-3-yl]-N-methyl-pyridine-2-carboxamide], the pEC50 in the data set on HBV (Hepatitis B virus, 72 h) is above 7.30. This compound also had a CC50 at 3 days in data set [1] above 50 µM.
The matching figures for `C=C[C@H](C)Nc1nc2c(c(=O)n1-c1cnc(C(=O)NC)c(Cl)c1)C[C@@H](C)N(C(=O)c1ccc(Br)c(C(F)(F)F)c1)C2` [Compound 42, 5-[(6R)-7-[4-bromo-3-(trifluoromethyl)benzoyl]-6-methyl-2-[[(1S)-1-methylallyl]amino]-4-oxo-6,8-dihydro-5H-pyrido[3,4-d]pyrimidin-3-yl]-3-chloro-N-methyl-pyridine-2-carboxamide]: above 7.30 and above 50 µM.
In the case of `C=C[C@H](C)Nc1nc2c(c(=O)n1-c1ncc(C(=O)NC)cn1)C[C@@H](C)N(C(=O)c1ccc(Br)c(C(F)(F)F)c1)C2` [Compound 43, 2-[(6R)-7-[4-bromo-3-(trifluoromethyl)benzoyl]-6-methyl-2-[[(1S)-1-methylallyl]amino]-4-oxo-6,8-dihydro-5H-pyrido[3,4-d]pyrimidin-3-yl]-N-methyl-pyrimidine-5-carboxamide], the pEC50 in the data set with HBV (Hepatitis B virus, 72 h) was above 7.30. In addition, the 50% cytotoxic concentration (CC50) at 3 days in data set [1] is above 50 µM.
As for `C=C[C@H](C)Nc1nc2c(c(=O)n1-c1cnc3c(ncn3C)n1)C[C@@H](C)N(C(=O)c1ccc(Br)c(C(F)(F)F)c1)C2` [Compound 46, (6R)-7-[4-bromo-3-(trifluoromethyl)benzoyl]-6-methyl-2-[[(1S)-1-methylallyl]amino]-3-(1-methylimidazo[4,5-b]pyrazin-5-yl)-6,8-dihydro-5H-pyrido[3,4-d]pyrimidin-4-one], the pEC50 in the data set with HBV (Hepatitis B virus, 72 h) is above 7.30. In data set [1], this compound registered a CC50 at 3 days above 50 µM.
For `C=C[C@H](C)Nc1nc2c(c(=O)n1-c1cc(C)c3c(c1)ncn3C)C[C@@H](C)N(C(=O)c1ccc(Br)c(C(F)(F)F)c1)C2` [Compound 47, (6R)-7-[4-bromo-3-(trifluoromethyl)benzoyl]-3-(1,7-dimethylbenzimidazol-5-yl)-6-methyl-2-[[(1S)-1-methylallyl]amino]-6,8-dihydro-5H-pyrido[3,4-d]pyrimidin-4-one], the negative logarithm of the EC50 (pEC50) with HBV (Hepatitis B virus, 72 h) was above 7.30. Further, the CC50 at 3 days in data set [1] was found to be 23.7 µM.
The corresponding values for `C=C[C@H](C)Nc1nc2c(c(=O)n1-c1cc(F)c3c(c1)ncn3C)C[C@@H](C)N(C(=O)c1ccc(Br)c(C(F)(F)F)c1)C2` [Compound 48, (6R)-7-[4-bromo-3-(trifluoromethyl)benzoyl]-3-(7-fluoro-1-methyl-benzimidazol-5-yl)-6-methyl-2-[[(1S)-1-methylallyl]amino]-6,8-dihydro-5H-pyrido[3,4-d]pyrimidin-4-one] are above 7.30 and 26 µM.
With `C=C[C@H](C)Nc1nc2c(c(=O)n1-c1cc(F)c3ncn(C)c3c1)C[C@@H](C)N(C(=O)c1ccc(Br)c(C(F)(F)F)c1)C2` [Compound 49, (6R)-7-[4-bromo-3-(trifluoromethyl)benzoyl]-3-(7-fluoro-3-methyl-benzimidazol-5-yl)-6-methyl-2-[[(1S)-1-methylallyl]amino]-6,8-dihydro-5H-pyrido[3,4-d]pyrimidin-4-one], the pEC50 with HBV (Hepatitis B virus, 72 h) was above 7.30. Further, in data set [1], the 50% cytotoxic concentration (CC50) at 3 days is 23 µM.
The matching figures for `C#Cc1ccc(C(=O)N2Cc3nc(N[C@@H](C)C=C)n(-c4ccc(C(=O)NC)cc4)c(=O)c3C[C@H]2C)cc1C(F)(F)F` [Compound 50, 4-[(6R)-7-[4-ethynyl-3-(trifluoromethyl)benzoyl]-6-methyl-2-[[(1S)-1-methylallyl]amino]-4-oxo-6,8-dihydro-5H-pyrido[3,4-d]pyrimidin-3-yl]-N-methyl-benzamide]: above 7.30 and above 50 µM.
